Target: PTGR2 (Homo sapiens, UniProt Q8N8N7)
Test: MS-based (SILAC) competition of FFF probe 8 labeling of endogenous PTGR2 in HEK293T cells
Type: binding
Description: For gel-based experiments, cells were grown in 6-well plates to ˜90% confluence at the time of treatment. Cells were carefully washed with Dulbecco's phosphate buffered saline (DPBS) and replenished with fresh serum-free media containing indicated FFF probe, and, if applicable, competitors or DMSO vehicle (1 mL). Following incubation at 37° C. for 30 min, cells were directly exposed to 365 nm light for 10 min. For no UV experiments, cells were incubated at 4° C. for 10 min under ambient light. For MS-based experiments, cell labeling was performed in a similar manner as described above. Modifications to this protocol included using isotopically ‘light’ and ‘heavy’ SILAC cells that were grown to near complete confluence prior to treatment in 10 cm plates. In probe-versus-control probe and probe-versus-probe experiments, isotopically light cells were treated with indicated fragment probe, while the heavy cells were treated with control probe (1), or additional FFF probe to be compared, at indicated concentrations. […]
Cells pellets were lysed in cold DPBS (100-500 µL) using a Branson Sonifier probe sonicator (10 pulses, 30% duty cycle, output setting=4). […] Protein concentration was determined using the DC Protein Assay (Bio-Rad) and absorbance read using a Tecan, Infinite F500 plate reader following manufacturer's instructions. […]

PTGR2, sequence (Q8N8N7 whole entry): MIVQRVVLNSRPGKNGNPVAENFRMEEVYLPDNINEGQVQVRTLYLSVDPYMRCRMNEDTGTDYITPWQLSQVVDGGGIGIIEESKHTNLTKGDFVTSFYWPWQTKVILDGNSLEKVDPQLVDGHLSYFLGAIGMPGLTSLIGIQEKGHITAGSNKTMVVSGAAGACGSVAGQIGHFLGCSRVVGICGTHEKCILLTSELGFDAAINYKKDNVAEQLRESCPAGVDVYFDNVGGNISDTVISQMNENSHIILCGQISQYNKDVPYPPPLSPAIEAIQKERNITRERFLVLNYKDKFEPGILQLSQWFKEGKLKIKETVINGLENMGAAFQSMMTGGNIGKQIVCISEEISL

How did the inhibition at 0.5 µM (500 nM) turn out when `COc1ccccc1N1CCN(C(=O)Cc2ccccc2)CC1` [Compound 22, 1-(4-(2-Methoxyphenyl)piperazin-1-yl)-2-phenylethan-1-one] was run?
Its inhibition at 0.5 µM is roughly 80%.

What about the “inhibition of FFF 8 labeling of endogenous PTGR2” value (5 μM) of the same compound?
Its value is “complete inhibition”.
